Measurements as given in patent publication US20120130699A1, “Method of molecular design and synthesis of therapeutic and preventive drugs” (priority 2010, published 2012).

Experiments:
[1] = rat, in vivo
[2] = comparative characteristics: ED50 and therapeutic index; conditions: LD50 in rats / ED50
[3] = human, in vivo; cited from earlier work
cervical cancer = conditions: treatment of cervical cancer; cited from earlier work

For CC(=O)O[C@@]12CO[C@@H]1C[C@H](O)[C@@]1(C)C(=O)[C@H](O)C3=C(C)[C@@H](OC(=O)[C@H](O)[C@@H](NC(=O)OC(C)(C)C)c4ccccc4)C[C@@](O)([C@@H](OC(=O)c4ccccc4)[C@H]21)C3(C)C [Taxotere], the “Relative Therapeutic Index” value [1] was 1 and the “Therapeutic Index” value [2] was 3.42.
In the case of CN1CC[C@]23c4c5ccc(O)c4O[C@H]2[C@@H](O)C=C[C@H]3[C@H]1C5 [morphine], the average effectiveness [3] is given as 75%.
For alpha-interferon, the average effectiveness (cervical cancer) is given as “about 15%”.
